Experimental data published in US20070292386A9, “Vaccine formulations for intradermal delivery comprising adjuvants and antigenic agents” (priority 2004, published 2007).
Ends that are not written are not given here.

B1: IL-7: cytokine interleukin-7 (protein, UniProt P13232 26-177, looked up)
Interleukin-7: DCDIEGKDGKQYESVLMVSIDQLLDSMKEIGSNCLNNEFNFFKRHICDANKEGMFLFRAARKLRQFLKMNSTGDFDLHLLKVSEGTTILLNCTGQVKGRKPAALGEAQPTKSLEENKSLKEQKKLNDLCFLKRLLQEIKTCWNKILMGTKEH
B2: IL-12: heterodimeric cytokine interleukin-12 (protein, UniProt P29459 23-219; P29460 23-328, looked up)
Interleukin-12 subunit alpha: RNLPVATPDPGMFPCLHHSQNLLRAVSNMLQKARQTLEFYPCTSEEIDHEDITKDKTSTVEACLPLELTKNESCLNSRETSFITNGSCLASRKTSFMMALCLSSIYEDLKMYQVEFKTMNAKLLMDPKRQIFLDQNMLAVIDELMQALNFNSETVPQKSSLEEPDFYKTKIKLCILLHAFRIRAVTIDRVMSYLNAS
Interleukin-12 subunit beta: IWELKKDVYVVELDWYPDAPGEMVVLTCDTPEEDGITWTLDQSSEVLGSGKTLTIQVKEFGDAGQYTCHKGGEVLSHSLLLLHKKEDGIWSTDILKDQKEPKNKTFLRCEAKNYSGRFTCWWLTTISTDLTFSVKSSRGSSDPQGVTCGAATLSAERVRGDNKEYEYSVECQEDSACPAAEESLPIEVMVDAVHKLKYENYTSSFFIRDIIKPDPPKNLQLKPLKNSRQVEVSWEYPDTWSTPHSYFSLTFCVQVQGKSKREKKDRVFTDKTSATVICRKNASISVRAQDRYYSSSWSEWASVPCS

test system: influenza antigen (Influenza APR834); type: in vivo; set-up: key: greater immune response (as indicated by X) as compared to the inoculums that contained Fluzone alone, or the non-immune inoculums; conditions: adjuvant with Fluzone, intradermal, Balb/c mice, one immunization, sera 21 days, vs Fluzone alone

Question: With IL-6: cytokine interleukin 6 as the molecule, how does the “Increased Immune Response, Fluzone” value read?
Answer: Its value is “X”.

Question: With “Interferon-gamma: cytokine, interferon produced by lymphocytes” as the molecule, how does the “Increased Immune Response, Fluzone” value read?
Answer: The value was “X”.

Question: For “N-formyl-NIe Leu-Phe-NIe-Tyr-Lys [Neutrophil Chemo-attractant Peptide]”, which “Increased Immune Response, Fluzone” value is on record?
Answer: The value was “X”.

Question: With “Tyr-Leu-Glu-Pro-Gly-Pro-Val-Thr-Ala [Melanonin Peptide 946]” as the molecule, how does the “Increased Immune Response, Fluzone” value read?
Answer: Its value is “X”.

Question: How did the “Increased Immune Response, Fluzone” value turn out when “VGVAPG [Elastin Repeating Peptide, mammalian peptide adjuvant]” was run?
Answer: Its value is “X”.

Question: How did the “Increased Immune Response, Fluzone” value turn out when B1 was run?
Answer: The value was “X”.

Question: With B2 as the molecule, how does the “Increased Immune Response, Fluzone” value read?
Answer: Its value is “X”.
